Laboratory results reported in US20190328753A1, “COMPOSITIONS AND METHODS FOR TREATING OCULAR DISEASES” (priority 2015, published 2019).
Values joined by “and” are separate entries in the source; they are usually repeats but may differ in a detail not shown here. Identical values can stand only once.

What was measured:
Corneal epithelial cells [1] = experiment: Lipid production in corneal epithelial cells, dilutions of 0.025 mg/ml formulation, Oil Red O (Example 7); type: cell-based; conditions: seventh day
Method: Corneal epithelial cells were cultured in vitro to about 30% confluence and treated with various dilutions of a 0.025 mg/mL spironolactone eye drop formulation (i.e. 50×, 100×, 500×, 1000×, and 5000×, corresponding to 0.0005 mg/ml, 0.00025 mg/ml, 0.00005 mg/ml, 0.000025 mg/ml, and 0.000005 mg/ml). The cell medium with spironolactone was changed every two days. On the seventh day, the cells were stained for lipids with Oil Red O.

[2] = according to the literature; cited from earlier work
[3] = test system: patients with moderate to severe meibomian gland disease; experiment: Pilot study (Example 3): topical spironolactone ophthalmic suspension in MGD, retrospective pre-post
Corneal epithelial cells [4] = experiment: Lipid production in corneal epithelial cells, dilutions of 3 mg/ml formulation, Oil Red O (Example 6); type: cell-based; conditions: ninth day
Method: Corneal epithelial cells were cultured in vitro and treated with 0.03 mg/ml and other dilutions of a 3 mg/ml formulation of Spironolactone (100× (0.03 mg/ml), 200× (0.015 mg/ml), 500× (0.006 mg/ml), and 1000× (0.003 mg/mI)). The corneal epithelial cells were cultured in vitro to about 10-20% confluence. The cell medium with added spironolactone was changed every 2-3 days. On the ninth day, the cells were stained for lipids with Oil Red O.

[5] = post-treatment, n=20, lissamine green, scale 0-3
[6] = post-treatment, n=20, scale 0-4
[7] = pre vs post-treatment, n=20, positive = score decrease, scale 0-4
[8] = pre-post change, n=20, scale 0-3
[9] = pre-post change, n=20, scale 0-4

Structure (SMILES): CC(=O)SC1CC2=CC(=O)CCC2(C)C2CCC3(C)C(CCC34CCC(=O)O4)C12 (stereo not drawn) [spironolactone, 7α-acetylthio-3-oxo-17α-pregn-4-ene-21,17-carbolactone]
- lipid production (Oil Red O) (Corneal epithelial cells [1]; 1000× dilution (0.000025 mg/ml)): lipid production was still present
- lipid production (Oil Red O) (Corneal epithelial cells [1]; 5000× dilution (0.000005 mg/ml)): no lipid is being formed
- solubility in water [2]: practically insoluble in water
- side effects after topical administration ([3]; patients of the pilot study): A small percentage of the patients reported a mild temporary burning sensation in the eye
- Vision OD, Mean ([3]; post-treatment, n = 19): 0.069±0.051 log Mar units and 0.069 log Mar units
- Schirmer's OD, Mean ([3]; post-treatment, n=20): 13.6 mm
- Schirmer's OS, Mean ([3]; post-treatment, n=20): 14.6 mm
- Vision OS, Mean ([3]; post-treatment, n=20): 0.063±0.032 log Mar units and 0.063 log Mar units
- Conjunctival OD (Nasal), Mean [3, 5]: 0.83±0.189 and 0.83
- Conjunctival OD (Temporal), Mean [3, 5]: 0.55±0.181 and 0.55
- Conjunctival OS (Nasal), Mean [3, 5]: 0.60±0.148 and 0.60
- Conjunctival OS (Temporal), Mean [3, 5]: 0.40±0.134 and 0.40
- Keratitis OD Corneal, Mean [3, 5]: 0.050±0.050 and 0.050
- Keratitis OS Corneal, Mean [3, 5]: 0.20±0.156 and 0.20
- Anterior Blepharitis, Mean [3, 6]: 0.38±0.114 and 0.38
- Obstruction, Mean [3, 6]: 1.58±0.236 and 1.58
- Turbidity, Mean [3, 6]: 2.3±0.193 and 2.3
- Vascularity, Mean [3, 6]: 1.48±0.253 and 1.48
- Zone A, Mean [3, 6]: 3.125±0.188 and 3.125
- Subjective Global Assessment, Mean ([3]; post-treatment, n=20, scale 0-10): 4.6±0.534 and 4.6
- improvement of turbidity score, percent ([3]; pre vs post-treatment, n=20): 22.03%
- improvement of zone A score, percent ([3]; pre vs post-treatment, n=20): 11.97%
- mean improvement in anterior blepharitis score [3, 7]: 0.175±0.230
- mean improvement in obstruction score [3, 7]: 0.40±0.222
- mean improvement in turbidity score [3, 7]: 0.65±0.141
- mean improvement in vascularity score [3, 7]: 0.25±0.194
- mean improvement in zone A score [3, 7]: 0.425±0.186
- improvement in self-reported global assessment scores ([3]; pre vs post-treatment, n=20, positive = score decrease, scale 0-10): 1.4±0.597
- Vision OD (log Mar units), Change % ([3]; pre-post change, n = 19): 213.64%
- Vision OD, mean change ([3]; pre-post change, n = 19): 0.047±0.043 log Mar units and 0.047 log Mar units
- Anterior Blepharitis, Change % ([3]; pre-post change, n=20): −31.82%
- Conjunctival OD (Nasal), Change % ([3]; pre-post change, n=20): −20.00%
- Conjunctival OD (Temporal), Change % ([3]; pre-post change, n=20): −29.49%
- Conjunctival OS (Nasal), Change % ([3]; pre-post change, n=20): −36.84%
- Conjunctival OS (Temporal), Change % ([3]; pre-post change, n=20): 20.00%
- Keratitis OD (Corneal), Change % ([3]; pre-post change, n=20): −50.00%
- Keratitis OS (Corneal), Change % ([3]; pre-post change, n=20): 0.00%
- Obstruction, Change % ([3]; pre-post change, n=20): −20.25%
- Schirmer's OD (mm), Change % ([3]; pre-post change, n=20): −3.71%
- Schirmer's OD, mean change ([3]; pre-post change, n=20): −0.525±1.496 mm and −0.525 mm
- Schirmer's OS (mm), Change % ([3]; pre-post change, n=20): 1.75%
- Schirmer's OS, mean change ([3]; pre-post change, n=20): 0.250±1.008 mm and 0.25 mm
- Subjective Global Assessment, Change % ([3]; pre-post change, n=20): −23.33%
- Turbidity, Change % ([3]; pre-post change, n=20): −22.03%
- Vascularity, Change % ([3]; pre-post change, n=20): −14.45%
- Vision OS (log Mar units), Change % ([3]; pre-post change, n=20): −7.20%
- Zone A, Change % ([3]; pre-post change, n=20): −11.97%
- Conjunctival OD (Nasal), Mean Change [3, 8]: −0.20±0.142 and −0.20
- Conjunctival OD (Temporal), Mean Change [3, 8]: −0.23±0.187 and −0.23
- Conjunctival OS (Nasal), Mean Change [3, 8]: −0.35±0.146 and −0.35
- Conjunctival OS (Temporal), Mean Change [3, 8]: 0.10±0.204 and 0.10
- Keratitis OD Corneal, mean change [3, 8]: −0.05±0.114 and −0.05
- Keratitis OS Corneal, mean change [3, 8]: 0.00±0.126 and 0.00
- Anterior Blepharitis, mean change [3, 9]: −0.175
- Obstruction, mean change [3, 9]: −0.4
- Turbidity, mean change [3, 9]: −0.65
- Vascularity, mean change [3, 9]: −0.25
- Zone A, mean change [3, 9]: −0.425
- Subjective Global Assessment, mean change ([3]; pre-post change, n=20, scale 0-10): −1.4
- lipid production (Oil Red O) (Corneal epithelial cells [4]; 0.006 mg/ml (500× dilution)): enhanced lipid production
- lipid production (Oil Red O) (Corneal epithelial cells [4]; 0.015 mg/ml (200× dilution)): enhanced lipid production
- lipid production (Oil Red O) (Corneal epithelial cells [4]; 0.03 mg/ml (100× dilution)): enhanced lipid production
